Laboratory results taken from patent US12485110B2, “Use of ergothioneine for extending lifespan or improving healthspan” (NANJING NUTRABUILDING BIO-TECH CO., LTD., priority 2022, dated 2025).

What was measured:
C. elegans [1] = experiment: Longevity-focused pathway analysis of differentially expressed genes; assay type: in vivo
From the text: This example describes identification of cellular pathways that are most likely modulated by treatment with Ergothioneine. To accomplish this, the genes differentially expressed after Ergothioneine treatment were first mapped to core established longevity pathways from the literature. Then the mapping was expanded to intersecting and supporting pathways. This placed the transcriptomic data within the context of well-characterized biological pathways, particularly several related to longevity.
Differentially expressed genes (DEGs) were mapped to known physiological pathways and then examined for coherent linkages between pathways related to longevity. These pathways were drawn from WormBase, KEGG, and other published databases and literature. For each condition, the DEGs were filtered on a more relaxed P value cutoff than the initial differential gene expression to capture broad evidence for a pathway from many small changes as opposed to highly significant individual genes of interest. For visualization, pathway genes were given a score based on the fold change weighted by the log of the P value, and this score was color mapped by magnitude and direction to produce the pathway diagram in FIG. 11.
FIG. 11 is a summary of pathway mapping to recognized aging-related pathways for Ergothioneine treatment. Colored score increments indicate degree of up-(red) or down-(blue) regulation weighted by the log of the P value such that each increment approximates one inverse log of P value. Uncolored objects indicate components that were not detected in the data. Top red indicates P value<0.0001 and so on. Solid lines indicate direct pathway connections and dashed lines indicate indirect or multi-step connections. Where lists of differentially expressed genes have been condensed into a module, the number of genes is indicated.
Starting with the canonical longevity pathways, the intersections with supporting pathways was then examined to expand the pool of evidence of whether a pathway is impacted by the treatment.

C. elegans [2] = experiment: Differential gene expression by mRNA sequencing (RNA-Seq); assay type: in vivo; conditions: for Number of genes differentially expressed above threshold: 5 mM vs control
Procedure: More than 150 day-1 adult worms per replicate were harvested, cleaned by filtration, and frozen at −80° C. in Trizol. To extract RNA, samples were thawed, vigorously vortexed, and processed using the Direct-zol RNA Miniprep Kit (Zymo Research). All samples exceeded our threshold for RNA quantity and quality.
RNA samples were submitted to Novogene Co. Ltd and subjected to more stringent QC, being tested on a Qubit for concentration and run on an agarose gel and on the Agilent 2100 to assess RNA quality and integrity.
The total RNA is then enriched for poly-mRNA using oligo(dT) paramagnetic beads. DNA libraries were then constructed from this input mRNA using the NEB Next Ultra™ II RNA Library Prep Kit. This creates a ready-to-sequence dsDNA library that retains the strand-specific information in the original mRNA. These libraries were then further tested by the Qubit for concentration and the Agilent 2100 for library size distribution and quality. In order to properly pool the libraries and load them onto sequencing lanes to ensure the correct number of reads per sample, an even more precise quantification of the library was done via qPCR, and the samples were loaded onto the NovaSeq 6000 platform for a paired-end sequencing run of 150 bp for each end (PE150). The loading concentrations were designed to obtain at least 6.0 Gb (which is the number of billion bases of raw data, determined by the number of reads multiplied by the length of each read).
Sequencing run data quality control was performed both by Novogene and again by inventors of this application. The raw data set was analyzed for: • 1. The distribution of base quality along the length of the sequencing read; • 2. The distribution of error rate along the length of the sequencing read; • 3. The distribution of A/T/G/C bases along the length of the sequencing read; • 4. The distribution of raw data filtering results based on the following three criteria: • a. Removing reads containing adapter sequence, • b. Remove reads with N>10% (where N means “base cannot be determined”), • c. Remove reads with a low quality (Qscore<=5) for 50% or more of its total bases.
To identify potential mechanisms of action through which Ergothioneine could affect aging, global gene expression was analyzed by mRNA sequencing (RNA-Seq). Both young (adult day 3) and aged (adult day 10) worms were collected from the same population of worms tested in the lifespan assay.
Differential gene expression was performed with EdgeR using […] likelihood ratio tests based on fitting linear models. The likelihood ratios were used to determine the p-values which were subsequently corrected for using the BH false discovery rate (fdr) method. Ultimately, differentially expressed genes (DEG) were defined as genes with an fdr-corrected p-value of 0.05 or lower, as well as a change in expression of at least 2-fold in a given between-group comparison. In this study, the comparison groups in Table 5 were used:
Reading Volcano Plots (log 2 fold change, Log FC): Positive values mean that the gene is more expressed in Treatment, and negative values mean the gene is more expressed in Control. The farther the dot is from the origin point on the x-axis, the greater the expression fold-change. Genes represented in green show a larger than 2-fold change in expression but are not deemed statistically significant due to replicate variability or low read count. Genes represented by red dots show greater than 2-fold change and expression that is statistically significant. The higher on the y-axis, the greater the calculated level of significance.

[3] = Ergothioneine treatment, pathway mapping FIG. 11
[4] = 5 mM vs vehicle control, Day 10, log 2 fold change
[5] = 5 mM vs. vehicle control, Day 3, log 2 fold change

## C[N+](C)(C)[C@@H](Cc1c[nH]c(=S)[nH]1)C(=O)[O-] [Ergo, Ergothioneine]
C. elegans [1]; Ergo treatment
  superoxide dismutase (SOD-2) expression: slightly decreased expression
C. elegans [1]; Ergothioneine treatment, autophagy
  cpr-1 expression: significantly downregulated
C. elegans [1]; [3]
  daf-2 expression: slightly downregulated
  daf-16 expression: slight downregulation
  ife-2 (eIF4E) expression: downregulated
  mtl-1 expression: strongly downregulated
C. elegans [1]; Ergothioneine treatment, stress response
  skn-1 expression: slight downregulation
C. elegans [2]; Day 3, cpr-1, mtl-1, argk-1, fdr P 0.05 or lower and at least 2-fold
  Number of genes differentially expressed above threshold: 3
C. elegans [2]; Day 10, F55G11.4
  Number of genes differentially expressed above threshold: 1
C. elegans [2]; [4]
  log FC, gene C30G12.2: 0.55
  log FC, gene F55G11.4: −1.09
  log FC, gene K07C11.7: −0.43
  log FC, gene TO5E12.6: 0.62
  log FC, gene Y39B6A. 1: −0.38
  log FC, gene Y94H6A.10: 0.43
  log FC, gene clec-150: −0.45
  log FC, gene col-19: −0.47
  log FC, gene dod-6: 0.69
  log FC, gene dod-24: −0.49
  log FC, gene folt-2: −0.49
  log FC, gene pmp-5: −0.64
  log FC, gene pmt-2: −0.38
  log FC, gene smd-1: 0.26
  log FC, gene thn-2: 0.31
C. elegans [2]; [5]
  Log FC, gene C14C6.5: −0.59
  Log FC, gene F16B4.4: 0.66
  Log FC, gene F28B4.3: −0.48
  Log FC, gene F53A9.8: −0.73
  Log FC, gene F57F4.4: −0.43
  Log FC, gene Y39B6A. 1: −0.95
  Log FC, gene argk-1: 1.14
  Log FC, gene col-95: −0.56
  Log FC, gene col-124: 1.76
  Log FC, gene cpr-1: −2.10
  Log FC, gene ctsa-1.2: −0.48
  Log FC, gene ctsa-2: 0.50
  Log FC, gene folt-2: −0.54
  Log FC, gene hacd-1: −1.06
  Log FC, gene ilys-5: −0.57
  Log FC, gene irg-5: 1.39
  Log FC, gene lys-7: −0.70
  Log FC, gene mtl-1: −1.63
  Log FC, gene smd-1: −0.35
  Log FC, gene vit-4: −0.64
